{"source": "patent US20190308994A1", "about": "“Topical Pharmaceutical Formulations For Treating Inflammatory-Related Conditions” (Anacor Pharmaceuticals, Inc., priority 2015, published 2019)", "key": {"[1]": {"assay": "Solubility of crisaborole in solvents by visual assessment", "type": "physicochemical", "method": "(§1) One of the key aspects encountered in reformulating crisaborole was that the active agent be fully dissolved within its solvent. A selection criterion of greater than 10% w/w crisaborole solubility was used to select solvents capable of carrying at least 1% crisaborole in a final drug product formulation, assuming the drug product contained 10% solvent. The solubility of crisaborole in ten solvents was evaluated to identify those with crisaborole solubility greater than 10% w/w by visual assessment. The equilibrium solubility of the best solvents was subsequently verified by HPLC."}, "[2]": {"assay": "Equilibrium solubility of crisaborole in solvents by HPLC", "type": "physicochemical", "details": "thermodynamic from solid, read-out: Solubity by HPLC", "method": "as §1"}}, "note": "Read-outs that look alike come from different tables or passages of the source.", "data": [{"smiles": "N#Cc1ccc(Oc2ccc3c(c2)COB3O)cc1", "note": "[Crisaborole Form II, 5-(4-cyanophenoxy)-1,3-dihydro-1-hydroxy-2,1-benzoxaborole]", "values": [{"measurement": "Visual Solubity", "setting": "[1]; in Diisopropyl Adipate", "value": 7.7, "unit": "% w/w"}, {"measurement": "Visual Solubity", "setting": "[1]; in Ethylhexyl Hydroxystearate", "value": 1.6, "unit": "% w/w"}, {"measurement": "Visual Solubity", "setting": "[1]; in Hexylene Glycol, NF", "value": 25.9, "unit": "% w/w"}, {"measurement": "Visual Solubity", "setting": "[1]; in Isopropyl Myristate, NF", "value": 0.6, "unit": "% w/w"}, {"measurement": "Visual Solubity", "setting": "[1]; in Oleic Acid, NF", "value": "<0.1", "unit": "% w/w"}, {"measurement": "Visual Solubity", "setting": "[1]; in Oleyl Alcohol, NF", "value": 2.3, "unit": "% w/w"}, {"measurement": "Visual Solubity", "setting": "[1]; in Polyethylene Glycol (PEG) 400, USP", "value": 15.0, "unit": "% w/w"}, {"measurement": "Visual Solubity", "setting": "[1]; in Propylene Carbonate, NF", "value": 9.9, "unit": "% w/w"}, {"measurement": "Visual Solubity", "setting": "[1]; in Propylene Glycol, USP", "value": 24.0, "unit": "% w/w"}, {"measurement": "Visual Solubity", "setting": "[1]; in Transcutol P, NF", "value": 28.6, "unit": "% w/w"}, {"measurement": "solubility", "setting": "[2]; oil or lipid, in Ethylhexyl Hydroxystearate", "value": 21, "unit": "mg/mL"}, {"measurement": "solubility", "setting": "[2]; oil or lipid, in Oleyl Alcohol, NF", "value": 33, "unit": "mg/mL"}, {"measurement": "solubility", "setting": "[2]; organic solvent or mixture, in Hexylene Glycol, NF", "value": 356, "unit": "mg/mL"}, {"measurement": "solubility", "setting": "[2]; organic solvent or mixture, in Polyethylene Glycol (PEG) 400, USP", "value": 164, "unit": "mg/mL"}, {"measurement": "solubility", "setting": "[2]; organic solvent or mixture, in Propylene Carbonate, NF", "value": 96, "unit": "mg/mL"}, {"measurement": "solubility", "setting": "[2]; organic solvent or mixture, in Propylene Glycol, USP", "value": 274, "unit": "mg/mL"}, {"measurement": "solubility", "setting": "[2]; organic solvent or mixture, in Transcutol P, NF", "value": 21.2, "unit": "mg/mL"}]}]}
